US12440498B2 (priority 2020, dated 2025)
Where two headings read alike, the source gives them in different places.

Tests used:
influenza = conditions: human, in vivo; cited from earlier work
[1] = human, in vivo; cited from earlier work
[2] = in vivo; cited from earlier work
[3] = system: recombinant A/H1N1 pdm09 wildtype (WT); type: cell-based
[4] = system: A/H1N1nLuc recombinant virus; test: microbe, parasite or virus in culture; type: cell-based, influenza A virus
[5] = system: A/H1N1 pdm09 (A/Lyon/969/2009 H1N1); type: cell-based, influenza A virus
A/H1N1 virus = test: microbe, parasite or virus in culture; type: cell-based, influenza A virus
[6] = system: A/H3N2 (A/Texas/50/2012 H3N2); type: cell-based, influenza A virus
flu virus = conditions: human, in vivo, po; cited from earlier work

Structure (SMILES): COC(=O)OCOc1c2n(ccc1=O)N([C@@H]1c3ccccc3SCc3c1ccc(F)c3F)[C@@H]1COCCN1C2=O [baloxavir marboxil]
- median time to cessation of viral shedding (influenza): 48 h
- patients with mainly digestive side effects (nausea, diarrhea, etc.) [1]: 4-5%

Structure (SMILES): O=C1c2c(O)c(=O)ccn2N([C@@H]2c3ccccc3SCc3c2ccc(F)c3F)[C@@H]2COCCN12 [baloxavir, baloxavir acid]
- half-life (hepatic elimination) [2]: 50 to 90 h
- reduction of production of A/H1N1 infectious particles [3]: 3 log 10
- EC50 ([4]; Influenza A virus, A549): 0.000144 µM
- reduction of production of A/H1N1 infectious particles [5]: 4 log 10
- increase of IC50 relative to the initial IC50 (A/H1N1 virus): 35 times
- reduction of production of A/H3N2 infectious particles [6]: 3 log 10

Structure (SMILES): COc1ccc([C@@H]2Sc3ccccc3N(CCN(C)C)C(=O)[C@@H]2OC(C)=O)cc1.Cl [diltiazem]
- EC50 [4]: 53.8 µM
- EC50 ([4]; Influenza A virus, A549): 50.1 µM
- IC50 (A/H1N1 virus; Influenza A virus, H1N1, MDCK, read-out: median inhibitory concentration (IC50)): 5 µM

Structure (SMILES): NC(=O)c1nc(F)c[nH]c1=O [favipiravir]
- EC50 ([4]; Influenza A virus, A549): 2.49 µM

Structure (SMILES): CCOC(=O)C1=C[C@@H](OC(CC)CC)[C@H](NC(C)=O)[C@@H](N)C1 [oseltamivir]
- median time to cessation of viral shedding (influenza): 72 h

Structure (SMILES): NC(=O)c1ncn([C@@H]2O[C@H](CO)[C@@H](O)[C@H]2O)n1 [ribavirin]
- efficacy against flu virus (flu virus): not effective
